Tests used:
[1] = system: MSH3 exons 20/21 mRNA; assay: qPCR of total MSH3 exons 20/21 in HEK293 WT and PE14A CAG clones (FIG. 12A); type: cell-based, human; conditions: HEK293 wild-type clones, 24 hours
Experimental: (§1) In this example, MSH3 poison exon 14A (PE5) and poison exon 21A (PE4) were validated. Briefly, HEK293 parental and clonal cells (Synthego) were cultured in DMEM (ThermoFisher Scientific) supplemented with 10% fetal bovine serum (Avantor) and 0.1 μg/mL Primocin (Invivogen). All cell lines were maintained at sub-confluency and grown in a humidified incubator at 37° C. with 5% CO2. HEK293 clonal cells were generated by Synthego's proprietary CRISPR methods to replace PE14A 5′ splice site with a strong donor (TGAGTTG>CAGGTTA) at the endogenous locus. Two clones (C3 and H2) were isolated to express 99-100% of the desired knock-in mutation. Two clones were generated from the parental line HEK293 without any editing (wild-type WTl3 and WT7) to be used as controls. […] RNA, cDNA and qPCR was prepared using TaqMan Cells-to-CT Express kit (ThermoFisher Scientific). Taqman assays (ThermoFisher Scientific) were used for quantification of total MSH3 exons 13/14 (cat #4351372, ID #: Hs00988993_ml), total MSH3 exons 20/21 (cat #4351372, ID #: Hs00989000_ml), exon 13/PE14A (Fwd: 5′-[…] (SEQ ID NO: 14); Rev: 5′-[…] (SEQ ID NO: 15); Probe: 5′-[…] (SEQ ID NO: 16)) and exon 20/PE21A (Fwd: 5′-[…] (SEQ ID NO: 17); Rev: 5′-[…] (SEQ ID NO: 18); Probe: 5′-[…] (SEQ ID NO: 19)) mRNA expression. […] Protein concentrations were determined by Rapid Gold BCA (ThermoFisher Scientific). […]

[2] = system: MSH3 protein; assay: Western blot of MSH3 protein in HEK293 WT and PE5 CAG clones (FIG. 12C); type: cell-based, human
Experimental: as §1

[3] = system: MSH3 exons 13/14 mRNA; assay: qPCR of total MSH3 exons 13/14 in HEK293 WT and PE14A CAG clones (FIG. 11A); type: cell-based, human
Experimental: as §1

[4] = system: MSH3 exon 20/PE21A mRNA (PE4); assay: qPCR of MSH3 PE4 (exon 20/PE21A) in HEK293 WT and PE14A CAG clones (FIG. 12B); type: cell-based, human; conditions: HEK293 wild-type clones, 24 hours
Experimental: as §1

[5] = system: MSH3 poison exon 14A; assay: RT-PCR of MSH3 exon 13/PE14A and PE14A/exon 14 amplicons in HEK293 cells (FIG. 13); type: cell-based, human; conditions: 24 hours
Experimental: (§2) To further validate MSH3 poison exon 14A, RT-PCR was used to analyze MSH3 exon 13/poison exon 14A, and poison exon 14A/exon 14 amplicons. Briefly, Cynomolgus monkey primary dermal fibroblasts (Cellosaurus) and HEK293 cells (ATCC) were cultured in DMEM (ThermoFisher Scientific) supplemented with 10% fetal bovine serum (Avantor) and 0.1 μg/mL Primocin (Invivogen). All cell lines were maintained at sub-confluency and grown in a humidified incubator at 37° C. with 5% CO2. RNA was purified using Qiashredder and RNeasy kits (Qiagen), cDNA was prepared with MultiScribe Reverse Transcriptase (ThermoFisher Scientific) and PCR with GoTaq Green Master Mix (Promega). Primers (IDT) used were the following: Fwd-Exon 13 (5′-[…] (SEQ ID NO: 20)), Rev-PE14A (5′-[…] (SEQ ID NO: 21)), Fwd-PE14A (5′-[…] (SEQ ID NO: 22)), Rev-Exon 14 (5′-[…] (SEQ ID NO: 23)), Fwd-GAPDH (5′-[…] (SEQ ID NO: 24)), Rev-GAPDH (5′-ACCCGTTGACTCCGACCT (SEQ ID NO: 25)).

[6] = system: MSH3 poison exon 14A; assay: RT-PCR of MSH3 exon 13/PE14A and PE14A/exon 14 amplicons in cynomolgus monkey fibroblasts (FIG. 13); type: cell-based; conditions: 24 hours
Experimental: as §2

[7] = system: MSH3 exon 13/PE14A mRNA (PE5); assay: qPCR of MSH3 PE5 (exon 13/PE14A) in HEK293 WT and PE14A CAG clones (FIG. 11B); type: cell-based, human
Experimental: as §1

[8] = system: MSH3 Exon 14A_1 or Exon 14A_2; assay: Splicing and RNA expression changes, poison exon 14A_1 or 14A_2 (FIG. 9); type: cell-based; conditions: for total RNA: e.g., due to NMD
Source text: (§3) Poison exons were identified in endogenous MSH3 genome by employing a proprietary bioinformatics pipeline screening for cryptic exons in combination with examining poison exon candidates that could be regulated by an agent described herein or by nonsense mediated decay (NMD) using cycloheximide. FIG. 6 and FIG. 7 illustrate identification of Exon 21A, but not Exon 21B, as a poison exon that could be regulated by the agent described herein. FIG. 8 and FIG. 9 illustrate mutations that can be introduced into the poison exon (Exon 21A and Exon 14A_1 or Exon 14A_2, respectively), where the mutated nucleotide bases (e.g., CAG) could further enhance the suppression of the MSH3 expression. Such mutations can be utilized as a method or a system for screening additional candidate agents. FIG. 8 illustrates splicing and RNA expression changes for targets regulated by an agent described herein. […] FIG. 8 also illustrates how mutating a poison exon (e.g., from ATA to CAG) increased percentage of splice inclusion of Exon 21A from 0.13 to 0.98. Such mutations can be useful for designing a method or a system for screening additional agents for modulating splicing in of poison exon into a mRNA (e.g., as shown in FIG. 10). FIG. 9 illustrates splicing and RNA expression changes for targets regulated by an agent described herein. […] FIG. 9 also illustrates how mutating the poison exon (e.g., from TGA to CAG) increased percentage of splice inclusion of Exon 14A_1 from 0.00 to 0.59. Such mutations can be useful for designing a method or a system for screening additional agents for modulating splicing in of poison exon into a mRNA (e.g., as shown in FIG. 10). […] FIG. 10A illustrates engineered minigene donor (e.g., by mutating endogenous trinucleotides to CAG as shown in FIG. 8 and FIG. 9) for driving expression of a luciferase reporter gene. FIG. 10B illustrates minigene PCR showing the presence of the poison exon comprising the CAG mutation. […] FIG. 10C illustrates increased luciferase signal generated by the presence of the minigene comprising the poison exon comprising the CAG mutation.

[9] = system: MSH3 Exon 21A; assay: Splicing and RNA expression changes, poison exon 21A (FIGS. 6-8); type: cell-based; conditions: FIG. 8; for total RNA: e.g., due to NMD
Source text: as §3

[10] = HEK293 wild-type clones, 24 hours

SMILES | MSH3 expression (total, exons 20/21) [1] | MSH3 protein levels ([2]; PE5 CAG clones) | MSH3 protein levels ([2]; wild-type clones) | MSH3 expression (total, exons 13/14) [3, 10] | MSH3 expression (total, exons 13/14) ([3]; PE5 CAG clones C3 and H2, 24 hours) | PE4-specific expression [4] | 13/PE14A amplicon [5] | PE14A/14 amplicon [5] | 13/PE14A amplicon [6] | PE14A/14 amplicon [6] | PE5-specific expression [7, 10] | further increase of PE5 ([7]; PE5 CAG clones C3 and H2, 24 hours, starting at 0.3-1 μM) | poison exon expression (Exon 14A_1 or Exon 14A_2) [8] | total RNA [8] | poison exon expression (Exon 21A) [9] | total RNA [9]
Cc1nn(C)cc1-c1cc(F)c2c(c1)C(=O)N(c1ccc(N(C)[C@H]3C[C@]4(C)CC[C@](C)(C3)N4)nn1)C2 [Compound A] | lowering MSH3 expression | decreased in MSH3 levels | decreased in MSH3 levels | lowering MSH3 expression | No further decrease | increasing PE4-specific expression | increase | increase | increase | increase | increasing PE5-specific expression | 20-30% |  |  |  | 
CN(c1ccc(N2Cc3cnc(-c4cnn(C)c4)cc3C2=O)nn1)C1CCNCC1 [Compound 1, 2-(6-(methyl(piperidin-4-yl)amino)pyridazin-3-yl)-6-(1-methyl-1H-pyrazol-4-yl)-2,3-dihydro-1H-pyrrolo[3,4-c]pyridin-1-one] |  |  |  |  |  |  |  |  |  |  |  |  | increased poison exon expression | decreased total RNA | increased poison exon expression | decreased total RNA
C[C@@H]1C[C@@H]([C@H](O)CC2CC(=O)NC(=O)C2)C(=O)[C@@H](C)C1 [CHX, cycloheximide, reference compound] |  |  |  |  |  |  |  |  |  |  |  |  | increased poison exon expression | decreased total RNA | increased poison exon expression | decreased total RNA

From patent US20260315464A1, “COMPOSITIONS, METHODS, AND SYSTEMS FOR MODULATING SPLICING OF MSH3” (REVIR THERAPEUTICS, INC., priority 2023, published 2026)
